# Test results reported in PMC10786919, “Design-rules for stapled peptides with in vivo activity and their application to Mdm2/X antagonists” (Nature Communications, 2024).
# Positions of bridges follow the written chain, without caps; N, C: chain ends. Non-standard residues stand in square brackets, D forms with d. Residues, ends and D or L forms follow the SMILES beside them. Lys(N3) = [N-]=[N+]=NCCCC[C@H](N)C(=O)O; R8 = C=CCCCCCC[C@@](C)(N)C(=O)O; Cba = N[C@@H](CC1CCC1)C(=O)O; S5 = C=CCCC[C@](C)(N)C(=O)O; βAla = NCCC(=O)O
# Assays:
# HCT116 cells = test: Lactate dehydrogenase (LDH) release assay; format: cell-based
# How it was run: (§1)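 HCT116 cells stably carrying a p53-responsive β-lactamase reporter were seeded at 8000 cells per well with a final DMSO level of 0.5%. Membrane integrity was assessed by lactate dehydrogenase release using a homogeneous fluorometric kit. Values are geometric means of at least three biological replicates.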
# [1] = Lactate dehydrogenase (LDH) release assay; format: cell-based; details: LDH: Cytotoxicity assay: EC50
# How it was run: as §1
# [2] = tested on: CellSensor p53RE-bla HCT-116 Cell Line; details: 72 h
# How it was run: (§2)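 Compound dilution series (10 points, 3-fold, 10 mM top stock in DMSO) tested on overnight-plated Ca Ski cells in RPMI1640/10% FBS and on blasticidin-selected p53RE-bla HCT-116 cells in McCoy's 5A; read-out was CellTiter-Glo 2.0 luminescence after room-temperature equilibration.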
# Ca Ski cell line = details: 72 h
# How it was run: as §2
# [3] = Experimental LogD (partition coefficient); details: not stated, Partition Coeff LogD
# in vitro = details: Nanoclick permeability assay EC50
# How it was run: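 Azido-peptide permeability was read as loss of NanoBRET signal (donor 450 nm, acceptor 610 nm) after adding NanoBret618-azide at 10 μM final.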
# [4] = Solubility assay (kinetic solubility, PBS pH 7); format: physicochemical; details: pH 7, aqueous buffer, kinetic from dmso stock, pH 7, PBS; read-out: Solubility
# How it was run: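 Values derive from peak-area ratios of sample versus a 100 µM standard, scaled by that standard's concentration.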
Structure (SMILES),LDH: Cytotoxicity assay: % Effect (HCT116 cells) [%],EC50 [1] [µM],EC50 [2] [µM],EC50 (Ca Ski cell line) [µM],logD [3],EPSA (physchem) [A^2],cell entry EC50 (in vitro) [µM],solubility kinetic [4] [µM]
CC(=O)N[C@@H](CCCCN=[N+]=[N-])C(=O)NCCC(=O)N[C@H](C(=O)N[C@H](C(=O)N[C@@H](Cc1ccccc1)C(=O)N[C@]1(C)CCCCCCC=CCCC[C@@](C)(C(=O)N[C@@H](CO)C(=O)N[C@@H](C)C(=O)N[C@@H](C)C(N)=O)NC(=O)[C@H](CC2CCC2)NC(=O)[C@H](CCC(N)=O)NC(=O)[C@H]([C@@H](C)O)NC(=O)[C@H](Cc2c[nH]c3ccccc23)NC(=O)[C@H](Cc2ccc(O)cc2)NC(=O)[C@H]([C@@H](C)O)NC1=O)[C@@H](C)O)[C@@H](C)O [MP-5494] (Ac-[Lys(N3)][βAla]TTF[R8]TYWTQ[Cba][S5]SAA-NH2; staple 6-13),2.763,> 50.6,0.679,> 49.8,2.94,199,0.457,–
CC(=O)N[C@@H](CCCCN=[N+]=[N-])C(=O)NCCC(=O)N[C@@H](Cc1ccccc1)C(=O)N[C@H](C(=O)N[C@@H](Cc1ccccc1)C(=O)N[C@]1(C)CCCCCCC=CCCC[C@@](C)(C(=O)N[C@@H](CO)C(=O)N[C@@H](C)C(=O)N[C@@H](C)C(N)=O)NC(=O)[C@H](CC2CCC2)NC(=O)[C@H](CCC(N)=O)NC(=O)[C@H](Cc2ccccc2)NC(=O)[C@H](Cc2c[nH]c3ccccc23)NC(=O)[C@H](Cc2ccc(O)cc2)NC(=O)[C@H](Cc2ccccc2)NC1=O)[C@@H](C)O [MP-492] (Ac-[Lys(N3)][βAla]FTF[R8]FYWFQ[Cba][S5]SAA-NH2; staple 6-13),–,> 50.6,2.53,> 49.8,4.21,211,0.16,3
CC(=O)N[C@@H](CCCCN=[N+]=[N-])C(=O)NCCC(=O)N[C@H](C(=O)N[C@H](C(=O)N[C@@H](Cc1ccccc1)C(=O)N[C@]1(C)CCCCCCC=CCCC[C@@](C)(C(=O)N[C@@H](CO)C(=O)N[C@@H](C)C(=O)N[C@@H](C)C(N)=O)NC(=O)[C@H](CC2CCC2)NC(=O)[C@H](CCC(N)=O)NC(=O)[C@H](C(C)C)NC(=O)[C@H](Cc2c[nH]c3ccccc23)NC(=O)[C@H](Cc2ccc(O)cc2)NC(=O)[C@H](C(C)C)NC1=O)[C@@H](C)O)C(C)C [MP-490] (Ac-[Lys(N3)][βAla]VTF[R8]VYWVQ[Cba][S5]SAA-NH2; staple 6-13),–,> 50.6,0.819,> 49.8,4,194,1.37,3
CC[C@H](C)[C@H](NC(=O)CCNC(=O)[C@H](CCCCN=[N+]=[N-])NC(C)=O)C(=O)N[C@H](C(=O)N[C@@H](Cc1ccccc1)C(=O)N[C@]1(C)CCCCCCC=CCCC[C@@](C)(C(=O)N[C@@H](CO)C(=O)N[C@@H](C)C(=O)N[C@@H](C)C(N)=O)NC(=O)[C@H](CC2CCC2)NC(=O)[C@H](CCC(N)=O)NC(=O)[C@H]([C@@H](C)CC)NC(=O)[C@H](Cc2c[nH]c3ccccc23)NC(=O)[C@H](Cc2ccc(O)cc2)NC(=O)[C@H]([C@@H](C)CC)NC1=O)[C@@H](C)O [MP-491] (Ac-[Lys(N3)][βAla]ITF[R8]IYWIQ[Cba][S5]SAA-NH2; staple 6-13),-1.101,> 50.6,1.32,> 49.8,4.61,196,0.237,–
CC(=O)N[C@@H](CCCCN=[N+]=[N-])C(=O)NCCC(=O)N[C@@H](CO)C(=O)N[C@H](C(=O)N[C@@H](Cc1ccccc1)C(=O)N[C@]1(C)CCCCCCC=CCCC[C@@](C)(C(=O)N[C@@H](CO)C(=O)N[C@@H](C)C(=O)N[C@@H](C)C(N)=O)NC(=O)[C@H](CC2CCC2)NC(=O)[C@H](CCC(N)=O)NC(=O)[C@H](CO)NC(=O)[C@H](Cc2c[nH]c3ccccc23)NC(=O)[C@H](Cc2ccc(O)cc2)NC(=O)[C@H](CO)NC1=O)[C@@H](C)O [MP-5493] (Ac-[Lys(N3)][βAla]STF[R8]SYWSQ[Cba][S5]SAA-NH2; staple 6-13),6.777,> 50.6,3.61,> 49.8,2.69,204,0.0294,–
